Data: US20110173718A1, “HERBICIDE TOLERANT PLANTS” (SYNGENTA CROP PROTECTION, INC., priority 2008, published 2011)
“And” between values parts separate entries of the source, which are not always exact repeats. Equal entries are not always repeated. Marks after values point to notes of the source that are not given here.

Tests used:
[1] = system: tobacco plants expressing Pseudomonas fluorescens HPPD; assay: Glasshouse spray test, Pseudomonas HPPD transgenic tobacco; format: in vivo; settings: C2 line (Pseudomonas HPPD, T2), individual plants
Text: Tobacco plants expressing the wild-type HPPD gene of Pseudomonas fluorescens strain 87-79 under operable control of the double enhanced 35S CMV promoter region, Nos3′ terminator and TMV translational enhancer were provided as detailed in Example 4 of WO0246387.
(§1) Seed of wild-type tobacco plants, C2 tobacco plants and of the T1 progeny of a further Arabidopsis-HST expressing tobacco line, D2 were planted out in 3 inch pots, grown on, sprayed with compounds 1.1, 2.30 and 3.6 at the rates shown in table 5. Percent damage scores were assessed at 7 DAT. Aside from the presumptive non-transgenic segregants the D2 line containing the Arabidopis HST expression construct offered the highest level of tolerance to the two HST herbicides with the Psuedomonas HPPD, C2 line, offering only marginal tolerance under the conditions of this test.
Transgenic lines of tobacco, soyabean and corn etc. can be engineered to express various heterologous HPPDs derived from, for example Avena (SEQ ID #26), Wheat (SEQ ID #27), Pseudomonas fluorescens (SEQ ID # 25) and Shewanella colwelliana (SEQ ID #28) as, for example, described in WO 02/46387.
(§2) Single copy events amongst the T1 plant lines are identified by their 3:1 segregation ratio (wrt kanamycin and or herbicide) and by quantitative RT-PCR. Seed from the thus selected T1 tobacco (var Samsun) lines are sown in 3 inch diameter pots containing 50% peat, 50% John Innes soil no 3. After growth to the 3 leaf stage, plants are sprayed, as described above, in order to test for herbicide tolerance relative to like-treated non-transgenic tobacco plants.
(§3) Control tobacco plants and transgenic T1 plants expressing either the Pseudomonas or the wheat HPPD gene are sprayed at 37, 111, 333 and 1000 g/ha rates of HST inhibitors and, for example, compound 2.3.
(§4) Plants are assessed and scored for % damage at 16 DAT.

[2] = system: wild-type (WT) Samsun tobacco; assay: Glasshouse spray test, wild-type tobacco; format: in vivo; settings: for % damage at 7 DAT: WT Samsun, individual plants
Description: Rooted transgenic T0 plantlets are transferred from agar and potted into 50% peat, 50% John Innes soil no 3 or, for example, MetroMix® 380 soil (Sun Gro Horticulture, Bellevue, Wash.) with slow-release fertilizer in 3 inch round or 4 inch square pots and left regularly watered to establish for 8-12 d in the glass house. Glass house conditions are about 24-27° C. day; 18-21° C. night and approximately a 14 h (or longer in UK summer) photoperiod. Humidity is ˜65% and light levels up to 2000 μmol/m^2 at bench level. Once new tissue emerges and plants they have reached the 2-4 leaf stage some of the clones from each event are sprayed with test chemicals dissolved in water with 0.2-0.25% X-77 surfactant and sprayed from a boom on a suitable track sprayer moving at 2 mph in a DeVries spray chamber with the nozzle about 2 inches from the plant tops. Spray volume is suitably 25 gallons per acre or, for example, […].
Test chemicals are, for example, compound 2.3 at 500 g/ha. At the same time that transgenic plants are sprayed so too are w/t Samsun tobacco plants grown from seed as well as non-transgenic plants regenerated from tissue culture and non-transgenic tissue culture escapes. Damage is assessed versus unsprayed control plants of like size and development.
6 Seed from w/t Samsun tobacco and 8 T1 seed from events B8 and G9 are also planted out in 3 inch pots, grown on for 7 to 12 d and then, as described in the foregoing examples, the plantlets spray tested for resistance to various chemicals and assessed at 14 DAT. Chemicals are formulated in 0.2% X77 and sprayed at a spray volume of 200 l/ha.
as §1, §2, §3, §4

[3] = system: Arabidopsis HST transgenic tobacco plants; assay: Glasshouse spray test, Arabidopsis HST transgenic tobacco; format: in vivo; settings: D2 line (Arabidopsis HST, segregating T1), individual plants
Chlamydomonas HST = molecular target: T1, Chlamydomonas HST (Chlamydomonas reinhardtii, UniProt A1JHN0); assay: HST assay (TLC, MFBQ formed), recombinant Chlamydomonas HST in E. coli membranes; format: biochemical; settings: TLC, estimated amount of MFBQ formed, relative to controls
T1 construct: GST (N); made in house; host or cells: E. coli (BL21A1 / BL21DE3), membrane fraction
T1 sequence (A1JHN0 51-370): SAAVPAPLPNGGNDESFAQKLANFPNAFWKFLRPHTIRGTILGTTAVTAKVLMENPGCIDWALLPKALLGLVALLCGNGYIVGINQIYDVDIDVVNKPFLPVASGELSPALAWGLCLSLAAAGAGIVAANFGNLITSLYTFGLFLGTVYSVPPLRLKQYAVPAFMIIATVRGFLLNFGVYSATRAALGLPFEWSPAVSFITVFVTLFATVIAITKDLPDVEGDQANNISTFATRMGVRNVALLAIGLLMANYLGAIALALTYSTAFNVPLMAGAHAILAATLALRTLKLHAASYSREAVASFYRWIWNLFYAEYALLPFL
Description: Alternatively, Arabidopsis and Chlamydomonas mature HST coding sequences are cloned as GST N-terminal fusion enzymes and expressed in E. coli.
E. coli. BL21A1 cells expressing mature Arabidopsis or Chlamydonionas HST as a GST N-terminal fusion proteins are grown, harvested, broken and membrane fractions expressing HST produced.
For example, 1 ng of recombinant DNA is used to transform BL21DE3 cells to obtain a plateful of individual colonies. One of these colonies is picked and used to inoculate an overnight culture of 100 ml of Luria Broth (LB) supplemented with 50 ug/ml of kanamycin at final concentration, grown at 37° C. with shaking at 220 rpm. Next morning, 10 mls of the overnight culture is used to inoculate 11 of fresh sterile LB supplemented with 50 ug/ml of kanamycin at final concentration, grown at 37° C. with shaking at 220 rpm until the OD reached 0.6 at 600 nm, induced with the addition of 0.1 mM IPTG and left to induce at 15° C. overnight. The cells are harvested by centrifugation at 4600 rpm for 10 min at 4° C. and the pellet stored at −80° C. […] E. coli cell pellet is then resuspended in 25 ml of 50 mM Tris, pH 7.5 supplemented with Roche EDTA-free protease inhibitor tablet (one tablet in 200 mls of buffer). 10 ml of cells are lysed by sonication on ice. The resultant lysed cells are centrifuged at 3000 g for 10 min to pellet the cell nuclei/debris etc. 10 mls of supernatant is aspirated and centrifuged at 150,000 g for 60 min at 4° C. The pellet containing the membranes is resuspended in 2 ml of the above buffer. These samples are stored as 100 ul aliquots at −80° C., after being diluted with addition of glycerol to 50% v/v.
(§5) Prenyltransferase (HST) activities are measured by determining the prenylation rates of [U—^14C]homogentisate using farnesyl diphosphate (FDP) as prenyl donor. ^14C homogentisate is prepared from ^14C tyrosine using L amino acid oxidase and HPPD. For inhibitor testing, compounds are dissolved in dimethylsulfoxide (DMSO). DMSO added at up to 2% v/v has no effect on assays. Control assays contain DMSO at the same concentration as in inhibitor containing assays.
The recombinant Chlamydomonas HST expressed in E. coli membranes is assayed in standard reaction mixtures with 200 μM FDP and 100 μM ^14C-homogentisate (40 dpm/pmol) in 50 mM Tricine-NaOH pH 8.5, 20 mM MgCl2. Assays are started with the addition of enzyme and run for ˜20 min at 28° C.
Recombinant Arabidopsis and Rice HSTs are expressed in insect cells. Assays are run as for Chlamydomonas HST except that assay temperature is 27° C. Assays are stopped with 300 ul of solvent mix (1:2, Chloroform:Methanol) and 100 ul of 0.5% NaCl, agitated/mixed and spun at 13,000 rpm in a benchtop eppendorf centrifuge for 5 minutes. 80 ul of the lower phase extract is loaded onto a TLC plate (silica Gel 60, 20 cm×20 cm) FLA3000 system and run for 35 minutes in dichloromethane. The radioactivity is quantified using a Fuji Phosphoimager and band intensity integrated as quantitative measure of product amount. The bands corresponding to oxidised and reduced 2-methyl-6-farnesyl-1,4-benzoquinol (MFBQ) are identified and the total of the two (oxidised and reduced) band intensities is calculated in order to estimate the total amount of MFBQ product formation. Specific activities of 8 pmol MFBQ min^−1 mg^−1 protein (23 pmol) and 7 pmol MFBQ min^−1 mg^−1 protein (14 pmol) are, for example, estimated for the GST-fusion truncated Arabidopsis HST gene (SEQ ID # 3) expressed in membranes from insect cells 4 days and 5 days after transfection respectively. Similar results are noted from past literature on E. coli expressed Arabidopsis HST. Activity from the insect cell expressed GST-fusion truncated rice HST (SEQ ID# 4) is similar. Expression of the non-truncated HST coding sequences as GST fusions also gives HST activity. […]

Arabidopsis HST = molecular target: T2, Arabidopsis HST (Arabidopsis thaliana, UniProt Q1ACB3); assay: HST total extraction (non TLC) assay, recombinant Arabidopsis HST from insect cells; format: biochemical; settings: 3 point dose curves only conducted at 50 μM HPP
T2 construct: GST (factor Xa cleavage site) (N); made in house; host or cells: Sf9 insect cells (baculovirus, pAcG3X), membrane fraction
T2 sequence (Q1ACB3 70-386): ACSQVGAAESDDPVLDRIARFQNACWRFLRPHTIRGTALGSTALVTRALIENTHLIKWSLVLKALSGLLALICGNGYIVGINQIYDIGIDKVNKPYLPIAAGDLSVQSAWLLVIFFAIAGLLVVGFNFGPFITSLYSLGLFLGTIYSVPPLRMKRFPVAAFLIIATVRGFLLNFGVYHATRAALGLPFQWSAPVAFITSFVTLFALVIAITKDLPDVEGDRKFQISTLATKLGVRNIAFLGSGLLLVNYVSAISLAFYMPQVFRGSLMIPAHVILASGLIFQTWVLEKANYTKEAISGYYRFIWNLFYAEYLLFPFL

[4] = system: HST in spinach chloroplast extract; assay: HST assay (TLC, MFBQ formed), spinach chloroplast extract; format: biochemical; settings: 25 ppm; TLC, estimated amount of MFBQ formed, relative to controls
Description: HST enzyme preparations for assay are also prepared directly from fresh plant material. For example HST enzyme preparations are from spinach. In the first step intact spinach chloroplasts are prepared from two lots of 500 g of fresh baby spinach leaves (e.g from the salad section of the local supermarket). Prepacked spinach is usually already washed, but if buying loose leaves these must be rinsed in water before proceeding. Stalks, large leaves and mid-ribs are removed. Each 500 g lot of leaves is added to 1.5 l of ‘Grinding medium’ in a 2 L plastic beaker. Grinding medium is cold (4° C.) 50 mM Tricine/NaOH buffer at pH 7.1 containing 330 mM glucose, 2 mM sodium isoascorbate, 5 mM MgCl2 and 0.1% bovine serum albumen The beaker, kept at 4° C., is placed under a Polytron 6000 blender, fitted with a 1.5″cutting probe and the mixture blended in short bursts of 5-8 sec up to 8-10K rpm until all the leaves are macerated. The homogenate is filtered into a 5 L beaker (embedded in an ice bucket) through four layers of muslin, and two layers of 50μ mesh nylon cloth. The filtrate is transferred to 250 ml buckets of a Beckman GS-6 centrifuge and spun at […] (3020 rpm) for 2 min at 4° C. The supernatant is drained away and discarded to leave a sediment of chloroplasts. Chloroplasts are resuspended in a few ml of cold resuspension medium by gentle swirling and gentle use of a quill brush soaked in resuspension medium. Resuspension medium is 50 mM Hepes/KOH pH 7.8 containing 330 mM sorbitol, 2 mM EDTA, 5 mM KH2PO4, 2 mM MgCl2 and 0.1% bovine serum albumen at 4° C. The chloroplasts are resuspended in 5-10 ml of resuspension buffer, recentrifuged down and resuspended again in order to wash them. The chloroplasts are then once again centrifuged down and then broken by resuspension in about 5 ml of 50 mM Tricine-NaOH pH 7.8 to a protein concentration of about 40 mg/ml. The solution is stored frozen at −80° C. in aliquots. This resuspension is defrosted and used directly in HST activity assays. Alternatively, chloroplasts are prepared resuspended in 50 mM Tris/HCl buffer at pH 7.8 containing 330 mM sorbitol (alternative resuspension buffer) and layered on top of a percol gradient (comprising the same buffer containing 45% percol), spun down, the intact chloroplast fraction taken and washed 2 or 3 times in the alternative resuspension buffer and then spun down again, resuspended in breaking buffer (without sorbitol), flash frozen and stored in aliquots at −80° C.
as §5
Assays using spinach chloroplast extracts (100 μl final volume) contain up to 2 mg of chloroplast protein, 50 mM Tricine-NaOH pH 8.5, 50 mM MgCl2, 200 μM farnesyl diphosphate (FDP) and 26 μM ^14C-homogentisate (167 dpm/pmol). Assays are run for about an hour at 28° C. […] Lipophilic reactions products are extracted and analyzed essentially as described in the literature.
Using the above assays percentage inhibition of the amount of MFBQ formed at a range of doses of inhibitors relative to the control amount obtained with no inhibitor present is reported (Table 1). The better inhibitors give greater percentage inhibition at lower doses.

CC(C)C(=O)OC1=C(c2cc(Cl)ccc2C(F)(F)F)S(=O)(=O)N(CC(F)F)c2nccnc21 [Compound 3.6]
% damage at 7 DAT ([1]; 150 gai/ha): 60%
% damage at 7 DAT ([1]; 300 gai/ha): 65% (3×) and 70%
% damage at 7 DAT ([1]; 450 gai/ha): 65%
% damage at 7 DAT ([2]; 150 gai/ha): 80%
percent damage at 6 DAT ([2]; 300 g/ha, WT, reps): 65%
% damage at 7 DAT ([2]; 300 gai/ha): 80% (2×) and 75%
% damage at 7 DAT ([2]; 450 gai/ha): 85%
% damage at 7 DAT ([3]; 150 gai/ha): 10% (2×) and 70% (2×) and 30% and 20% and 65% and 25%
% damage at 7 DAT ([3]; 300 gai/ha): 65% and 35% and 7% and 85% (2×) and 80% and 75% and 40%
% damage at 7 DAT ([3]; 450 gai/ha): 55% and 25% (2×) and 65% (2×) and 70% and 80% and 75%

Cn1c(=O)c(-c2c(F)ccc(F)c2Cl)c(O)c2nccnc21 [Compound 2.4]
Chlamydomonas. HST % I at 10 ppm (Chlamydomonas HST): 5%
Chlamydomonas. HST % I at 100 ppm (Chlamydomonas HST): 45%
Estimated IC50 (ppm) (Arabidopsis HST): 211* ppm

Cn1c(=O)c(-c2c(F)ccc(Br)c2Cl)c(O)c2nccnc21 [Compound 2.5]
Chlamydomonas. HST % I at 10 ppm (Chlamydomonas HST): 70%
Chlamydomonas. HST % I at 100 ppm (Chlamydomonas HST): 90%
Estimated IC50 (ppm) (Arabidopsis HST): 48* ppm

Cc1cc(C)c(-c2c(O)c3nccnc3n(CC(F)F)c2=O)c(C)c1 [Compound 2.11]
inhibition at 25 ppm (Chlamydomonas HST; 25 ppm, read-out: Chlamydomonas. HST % I at 25 ppm): 80%
Estimated IC50 (ppm) (Arabidopsis HST): 31* ppm
Spinach chloroplast extract % I at 25 ppm [4]: 30%
